# Laboratory results taken from US20040053884A1, “Preventives or remedies for arthritis” (priority 2001, published 2004).
# Counter-ions that a name gives are not always drawn.
# Legend:
# [1] = test system: mice with type II collagen-induced arthritis; assay: Test Example 3: N-acetylhydroxyproline, glucosamine and chondroitin in feed, type II collagen-induced arthritis score; assay type: in vivo, DBA/1J mice; conditions: for Score of arthritis: 0.05% of each additive in feed from day of first collagen administration, mean ±SE, N=20, scale 0-16
# Experimental: (§1) Unless otherwise noted, in the following test examples, DBA/1J mice produced by Charles River, powder feed CE2 produced by CLEA Japan, N-acetylhydroxyproline produced by Kyowa Hakko Kogyo, D-glucosamine sulfate 2NaCl as glucosamine (Miyako Kagaku) and chondroitin sodium sulfate (Maruha Kagaku) as chondtoitin were used.
# (§2) Scoring was carried out by applying 0-4 points with respect to one of four paws of mice: 0: no symptom; 1: swelling of one finger or swelling (slight) of the ankle; 2: swelling of 1-3 fingers or swelling of the ankle; 3: swelling of 3-5 fingers plus swelling of the ankle; and 4: swelling of all the fingers plus swelling of the ankle. Each mouse was scored the total of the points of 4 paws, namely, 0-16 points.
# An experiment similar to that of Test Example 1 was carried out except that glucosamine and chondroitin were used in place of glucosamine.
# (§3) That is, 21 days after the first administration of type II collagen, a solution prepared by mixing an equal amount of type II collagen and Freund's complete adjuvant and emulsifying the mixture using a homogenizer in a similar manner as in Test Example 1 was intradermally administered to the mice in an amount of 100 μl per one animal as the second administration of type II collagen. In this manner, arthritis was induced in mice.
# Starting on the day of the first administration of type II collagen, the mice were given powder feed CE-2 containing no additive as control; powder feed CE-2 containing 0.05% N-acetylhydroxyproline (indicated as AcHYP in Tables 3-1 and 3-2); powder feed CE-2 containing 0.05% N-acetylhydroxyproline and 0.05% chondroitin; and powder feed CE-2 containing 0.05% N-acetylhydroxyproline, 0.05% glucosamine and 0.05% chondroitin, respectively. At days 24, 28, 31, 35, 38 and 42 after the first administration of type II collagen, the extent of the development of arthritis was scored according to the indices employed in the above Test Example 1.
# (§4) Twenty mice were subjected to the test with respect to each of the conditions.
# (§5) In the tables, the figures show the scores under different treatment conditions, which are given as mean ±SE (N=20).
# (§6) In the tables, “no treatment” means no administration of type II collagen, and “control” means mice were given the feed containing no additive.
# [2] = test system: mice with type II collagen-induced arthritis; assay: Test Example 4: feed given from day 28 (after induction), type II collagen-induced arthritis score; assay type: in vivo, DBA/1J mice; conditions: day 0 (before feeding); 0.1% in feed starting at day 28; mean ±SE, N=10; scale 0-16
# [3] = test system: mice with type II collagen-induced arthritis; assay: Test Example 2: N-acetylhydroxyproline and chondroitin in feed, type II collagen-induced arthritis score; assay type: in vivo, DBA/1J mice; set-up: key to Score of arthritis: sum of 4 paws scored 0-4 each, 0-16 points; 0 = no symptom; conditions: for Score compared with control (in words): 0.1% added to the feed; for Score of arthritis: 0.1% in feed from day of first collagen administration, mean ±SE, N=20, scale 0-16
# Experimental: as §1, §2
# An experiment similar to that of Test Example 1 was carried out except that chondroitin was used in place of glucosamine.
# as §3
# Starting on the day of the first administration of type II collagen, the mice were given powder feed CE-2 containing no additive as control; powder feed CE-2 containing 0.1% N-acetylhydroxyproline (indicated as AcHYP in Tables 2-1 and 2-2); powder feed CE-2 containing 0.1% chondroitin; and powder feed CE-2 containing 0.05% N-acetylhydroxyproline and 0.05% chondroitin, respectively. At days 23, 27, 30, 33, 36, 40 and 42 after the first administration of type II collagen, the extent of the development of arthritis was scored according to the indices employed in the above Test Example 1.
# as §4, §5, §6
# [4] = test system: mice with type II collagen-induced arthritis; assay: Test Example 1: N-acetylhydroxyproline and glucosamine in feed, type II collagen-induced arthritis score; assay type: in vivo, DBA/1J mice; conditions: for Scores compared with control (in words): 0.1% added to the feed, compared with no additive (control); for Score of arthritis: 0.1% in feed from day of first collagen administration, mean ±SE, N=20, scale 0-16
# Source text: as §1
# It is known that arthritis is induced in DBA/1J mice by administering type II collagen two times.
# As the first administration of type II collagen, a solution prepared by mixing an equal amount of type II collagen [Collagen Gijutsu Kenshu Kaisha (MCK)] and Freund's complete adjuvant (Iatron) and emulsifying the mixture using a homogenizer was intradermally administered to 6-week old male DBA/1J mice in an amount of 100 μl per one animal.
# as §3, with “Twenty-one days” for “That is, 21 days”, “collagen, EXAMPLE” for “collagen,”, “manner” for “manner as in Test Example 1”, “the animals” for “the mice”
# Starting on the day of the first administration of type II collagen, the mice were given powder feed CE-2 containing no additive as control; powder feed CE-2 containing 0.1% N-acetylhydroxyproline (indicated as AcHYP in Tables 1-1 and 1-2); powder feed CE-2 containing 0.1% glucosamine (D-glucosamine sulfate 2NaCl); and powder feed CE-2 containing 0.05% N-acetylhydroxyproline and 0.05% glucosamine, respectively. At days 24, 28, 31, 34, 38 and 42 after the first administration of type II collagen, the extent of the development of arthritis was scored according to the following indices.
# as §2, §4, §5, §6
# [5] = test system: mice with type II collagen-induced arthritis; assay: Test Example 4: feed given from day 28 (after induction), type II collagen-induced arthritis score; assay type: in vivo, DBA/1J mice; conditions: for Scores compared with control (in words): 0.1% added to the feed from day 28, any of the days after day 33; for Score of arthritis: 0.1% in feed starting at day 28, mean ±SE, N=10, scale 0-16
# Experimental: as §1, §2
# as §3, with “As in Test Example 1,” for “That is,”
# Starting at day 28 after the first administration of type II collagen, the mice were given powder feed CE-2 containing no additive as control; powder feed CE-2 containing 0.1% N-acetylhydroxyproline (indicated as AcHYP in Tables 4-1 and 4-2); powder feed CE-2 containing 0.1% glucosamine; powder feed CE-2 containing 0.05% N-acetylhydroxyproline and 0.05% glucosamine; powder feed CE-2 containing 0.05% glucosamine and 0.05% chondroitin; and powder feed CE-2 containing 0.05% N-acetylhydroxyproline, 0.025% glucosamine and 0.025% chondroitin, respectively. At days 28, 33, 36, 39 and 42 after the first administration of type II collagen, the extent of the development of arthritis was scored according to the indices employed in the above Test Example 1.
# Ten mice were subjected to the test with respect to each of the conditions.
# In the tables, the figures show the scores under different treatment conditions, which are given as mean ±SE (N=10).
# as §6
# [6] = test system: animal model for arthritis; conditions: administration after induction of arthritis; J. Drug. Dev., 3, 135-142 (1990); cited from earlier work
# arthritis = conditions: Pharmacological Research, 33, 367-373 (1996); cited from earlier work
compound,measurement,setting,value
"CC(=O)N1C[C@H](O)C[C@H]1C(=O)O [AcHYP, N-acetylhydroxyproline]",Scores compared with control (in words),"[1]; 0.05% of each additive in the feed, any of the days after day 24",almost no lowering of the scores
same,Score of arthritis,[1]; day 0,0.0 ± 0.0
same,Score of arthritis,[1]; day 24,0.2 ± 0.1
same,Score of arthritis,[1]; day 28,5.4 ± 0.6
same,Score of arthritis,[1]; day 31,8.5 ± 0.7
same,Score of arthritis,[1]; day 35,9.4 ± 0.8
same,Score of arthritis,[1]; day 38,9.9 ± 0.8
same,Score of arthritis,[1]; day 42,9.4 ± 0.7
same,Score of arthritis,[2],0.0 ± 0.0
same,Score compared with control (in words),[3]; any of the days after day 27,lowering of the score
same,Score of arthritis,[3]; day 0,0.0 ± 0.0
same,Score of arthritis,[3]; day 23,0.1 ± 0.1
same,Score of arthritis,[3]; day 27,3.3 ± 0.7
same,Score of arthritis,[3]; day 30,7.0 ± 0.9
same,Score of arthritis,[3]; day 33,7.8 ± 0.9
same,Score of arthritis,[3]; day 36,7.9 ± 1.0
same,Score of arthritis,[3]; day 40,8.4 ± 0.9
same,Score of arthritis,[3]; day 42,8.8 ± 0.8
same,Scores compared with control (in words),[4],lowering of the scores
same,Score of arthritis,[4]; day 0,0.0 ± 0.0
same,Score of arthritis,[4]; day 24,0.0 ± 0.0
same,Score of arthritis,[4]; day 28,6.5 ± 0.7
same,Score of arthritis,[4]; day 31,9.5 ± 0.8
same,Score of arthritis,[4]; day 34,10.7 ± 0.8
same,Score of arthritis,[4]; day 38,10.8 ± 0.8
same,Score of arthritis,[4]; day 42,10.6 ± 0.8
same,Scores compared with control (in words),[5],slight lowering of the scores
same,Score of arthritis,[5]; day 28 (start of feeding),4.3 ± 0.9
same,Score of arthritis,[5]; day 33,9.8 ± 1.0
same,Score of arthritis,[5]; day 36,10.9 ± 1.1
same,Score of arthritis,[5]; day 39,10.7 ± 1.1
same,Score of arthritis,[5]; day 42,10.8 ± 1.0
same,Aggravation of arthritis,[6],can prevent aggravation of arthritis
same,Effect on chondral injury at joints,arthritis,shows no effect
same,Effect on systemic injury of ear and tail,arthritis,shows a therapeutic effect
"N[C@H]1C(O)O[C@H](CO)[C@@H](O)[C@@H]1O (stereo partly drawn) [Glucosamine, D-glucosamine sulfate 2NaCl]",Score of arthritis,[2],0.0 ± 0.0
same,Scores compared with control (in words),[4],lowering of the scores
same,Score of arthritis,[4]; day 0,0.0 ± 0.0
same,Score of arthritis,[4]; day 24,0.1 ± 0.1
same,Score of arthritis,[4]; day 28,5.8 ± 0.6
same,Score of arthritis,[4]; day 31,7.7 ± 0.7
same,Score of arthritis,[4]; day 34,9.2 ± 0.7
same,Score of arthritis,[4]; day 38,9.5 ± 0.6
same,Score of arthritis,[4]; day 42,9.4 ± 0.6
same,Scores compared with control (in words),[5],slight lowering of the scores
same,Score of arthritis,[5]; day 28 (start of feeding),4.3 ± 0.9
same,Score of arthritis,[5]; day 33,9.8 ± 1.2
same,Score of arthritis,[5]; day 36,10.1 ± 1.1
same,Score of arthritis,[5]; day 39,10.4 ± 1.0
same,Score of arthritis,[5]; day 42,10.6 ± 1.0
chondroitin sodium sulfate,Score compared with control (in words),[3]; after day 36,almost no lowering of the score
same,Score compared with control (in words),[3]; until day 33,slight lowering of the score
same,Score of arthritis,[3]; day 0,0.0 ± 0.0
same,Score of arthritis,[3]; day 23,0.1 ± 0.1
same,Score of arthritis,[3]; day 27,3.4 ± 0.6
same,Score of arthritis,[3]; day 30,7.8 ± 1.0
same,Score of arthritis,[3]; day 33,9.1 ± 0.9
same,Score of arthritis,[3]; day 36,9.7 ± 0.8
same,Score of arthritis,[3]; day 40,9.9 ± 0.8
same,Score of arthritis,[3]; day 42,9.8 ± 0.7
